Measured values published in the supplement of paper PMC8967900.

Legend:
Experiment in all cases: selective drug sensitivity score (sDSS, relative to normal bone marrow) (sDSS (score)); higher = more potent and effective on the cell line relative to normal bone marrow cells
Conditions in all cases: 72 h
ALL-PO = system: ALL-PO
ALL-SIL = system: ALL-SIL
CCRF-HSB2 = system: CCRF-HSB2
COG-LL-317 = system: COG-LL-317
COG-LL-394h = system: COG-LL-394h
COG-LL-402h = system: COG-LL-402h
DND-41 = system: DND-41
HAL-01 = system: HAL-01
HPB-ALL = system: HPB-ALL
KASUMI-10 = system: KASUMI-10
KASUMI-2 = system: KASUMI-2
KOPN-8 = system: KOPN-8
MHH-CALL-2 = system: MHH-CALL-2
MHH-CALL-4 = system: MHH-CALL-4
MOLT-16 = system: MOLT-16
P12-ICHIKAWA = system: P12-ICHIKAWA
RCH-ACV = system: RCH-ACV
RPMI-8402 = system: RPMI-8402
SEM cells = system: SEM cells
SUP-B15 = system: SUP-B15
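Further: ALL cell lines in 384-well plates, five doses spanning 10,000-fold, each plate scaled between vehicle and 100 µmol/L benzalkonium chloride controls, sDSS an adapted area-under-curve metric.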

SMILES | selective drug sensitivity score (ALL-PO) | selective drug sensitivity score (ALL-SIL) | selective drug sensitivity score (CCRF-HSB2) | selective drug sensitivity score (COG-LL-317) | selective drug sensitivity score (COG-LL-394h) | selective drug sensitivity score (COG-LL-402h) | selective drug sensitivity score (DND-41) | selective drug sensitivity score (HAL-01) | selective drug sensitivity score (HPB-ALL) | selective drug sensitivity score (KASUMI-10) | selective drug sensitivity score (KASUMI-2) | selective drug sensitivity score (KOPN-8) | selective drug sensitivity score (MHH-CALL-2) | selective drug sensitivity score (MHH-CALL-4) | selective drug sensitivity score (MOLT-16) | selective drug sensitivity score (P12-ICHIKAWA) | selective drug sensitivity score (RCH-ACV) | selective drug sensitivity score (RPMI-8402) | selective drug sensitivity score (SEM cells) | selective drug sensitivity score (SUP-B15)
O=c1[nH]c(C2CCCN2)nc2c1oc1ccc(Cl)cc12 (stereo not given) (top concentration 10000 nM) | -0.2 | 0.6 | 3.7 | 3.3 | 0.5 | -1.5 | -1.1 | 0.2 | -2.4 | -2.7 | 7.2 | 8.1 | 1 | -1.2 | -0.5 | 0.1 | 5.1 | 6.2 | -1.6 | 1.8
CN(C)CCOc1ccc(/C(=C(/CCCl)c2ccccc2)c2ccccc2)cc1 [Toremifene] (top concentration 10000 nM) | 3.18 | 1.28 | 1.48 | -0.22 | 0.58 | -2.72 | 6.78 | 3.18 | -1.72 | -5.42 | 5.68 | 0.98 | 9.68 | 0.48 | 3.38 | -1.12 | 6.88 | 0.58 | 0.48 | 2.58
CC(=O)Nc1cccc(-n2c(=O)n(C3CC3)c(=O)c3c(Nc4ccc(I)cc4F)n(C)c(=O)c(C)c32)c1 [Trametinib] (top concentration 250 nM) | -1.44 | -8.04 | -1.54 | -7.74 | -4.34 | -2.54 | 2.16 | 2.36 | -0.24 | -5.34 | 5.86 | 4.36 | 2.96 | 0.06 | -1.94 | -3.64 | -8.04 | -8.04 | -8.04 | 13.6
Cc1cc(Nc2ncc(Cl)c(Nc3ccccc3S(=O)(=O)C(C)C)n2)c(OC(C)C)cc1C1CCNCC1 [Ceritinib] (top concentration 2500 nM) | -0.94 | 4.36 | -3.44 | -3.44 | 5.16 | 2.86 | -3.44 | -1.44 | 1.86 | 0.36 | -3.44 | -3.44 | -0.04 | -0.74 | -3.44 | -3.44 | -2.04 | -1.84 | -3.44 | -3.44
C=C1C[C@@H]2[C@H](CC[C@]3(C)C(=O)CC[C@@H]23)[C@@]2(C)C=CC(=O)C=C12 [Exemestane] (top concentration 10000 nM) | -1.9 | -1.9 | -1 | 0 | -0.4 | 2.2 | -1.9 | 3.8 | 5.5 | -1.9 | 2.3 | 5.8 | -0.9 | -1.9 | -1.7 | -1.9 | 0.4 | -1.9 | -1.9 | 1.1
C=C(c1ccc(C(=O)O)cc1)c1cc2c(cc1C)C(C)(C)CCC2(C)C [Bexarotene] (top concentration 10000 nM) | 3.7 | -4.2 | -0.9 | -5.1 | -5.3 | -5.3 | -5.3 | -0.9 | -5.1 | -1.9 | -5.3 | 8 | 3.5 | 3.3 | 1.7 | -0.5 | -5.1 | -4 | 2.9 | -4.8
CC1(COc2ccc3c(c2)ncn3-c2ccc3cccc(N4CCC(N)CC4)c3n2)COC1 [Crenolanib] (top concentration 10000 nM) | 7.78 | 0.28 | 4.98 | 2.08 | -3.62 | 0.68 | 0.98 | -1.82 | -3.12 | 12.9 | -5.22 | 0.68 | 3.28 | 0.68 | -0.22 | -2.62 | -1.12 | -2.72 | 13.9 | 0.88
O=C(Nc1ccncc1)C(=O)c1cn(Cc2ccc(Cl)cc2)c2ccccc12 [Indibulin] (top concentration 10000 nM) | 12.7 | 23.4 | 11.2 | 6.24 | 1.54 | 3.64 | 5.54 | 5.34 | 14.2 | 11.3 | 7.14 | 17.9 | 5.74 | 1.54 | 16 | 6.54 | 14.6 | 5.84 | 11.9 | 11.8
Cc1c(C(=O)Nc2ccc(N3C[C@@H](C)O[C@@H](C)C3)nc2)cccc1-c1ccc(OC(F)(F)F)cc1 [Sonidegib] (top concentration 10000 nM) | 3.98 | 1.08 | -1.42 | -1.02 | -0.02 | -3.92 | 5.08 | -3.92 | 3.08 | 1.38 | -1.42 | 10.5 | 7.48 | 2.28 | 3.18 | 0.38 | 5.78 | 1.88 | -3.92 | 1.68
NS(=O)(=O)OC[C@@H]1C[C@@H](n2ccc3c(N[C@H]4CCc5ccccc54)ncnc32)C[C@@H]1O [Pevonedistat] (top concentration 10000 nM) | 12.7 | 13.1 | 16.3 | 15.7 | 2.7 | 8.5 | 10.1 | -3.5 | 5.7 | 19.1 | 6.3 | 13 | 10 | 11.5 | 16.7 | 16.7 | 12.3 | 16.2 | 9.9 | 15.2
Cn1cnc2c(F)c(Nc3ccc(Br)cc3F)c(C(=O)NOCCO)cc21 [Binimetinib] (top concentration 1000 nM) | 3.08 | -1.02 | -0.32 | -2.12 | 0.48 | 3.88 | -2.22 | 8.28 | -2.22 | 0.28 | -2.22 | 10.3 | 5.28 | 4.98 | -0.42 | -0.42 | -2.22 | -2.22 | -2.22 | 11.2
NCC(=O)Nc1ccc(-n2nc(C(F)(F)F)cc2-c2ccc3c(ccc4ccccc43)c2)cc1 (top concentration 25000 nM) | 7.7 | 8.4 | 16.4 | 11.3 | -0.2 | -0.2 | 7.5 | 5.5 | 7.6 | 0 | 0.1 | 7.4 | 7.1 | 2.9 | 19 | 16.7 | 17.3 | 13 | 8 | 7.5
CC1(C)CC[C@]2(NC(=O)C(C)(F)F)CC[C@]3(C)[C@H](C(=O)C=C4[C@@]5(C)C=C(C#N)C(=O)C(C)(C)[C@@H]5CC[C@]43C)[C@@H]2C1 [Omaveloxolone] (top concentration 10000 nM) | 3.08 | 1.28 | 3.78 | 4.88 | 0.48 | 3.38 | 3.98 | 3.58 | 3.58 | 2.58 | 6.38 | 8.68 | 0.58 | 1.28 | 4.88 | 1.88 | 6.28 | 0.88 | 4.88 | 8.38
CNc1nc(-c2ccc3c(N)n[nH]c3c2)cc(N2C[C@@H](C(=O)NC3CCCCC3)CC[C@H]2C)n1 (top concentration 10000 nM) | 8.86 | 1.36 | -0.14 | -0.14 | -0.14 | 6.36 | 1.96 | -0.14 | 1.86 | 0.46 | 7.26 | 7.26 | 6.16 | 3.46 | -0.14 | -0.14 | 18.6 | -0.14 | 3.26 | 9.96
CCN(CC)Cc1ccc2cc(COC(=O)Nc3ccc(C(=O)NO)cc3)ccc2c1 [Givinostat] (top concentration 1000 nM) | 3.9 | 8.6 | 4.5 | 4.1 | 2.4 | 12.9 | 2.4 | -2.4 | 6.3 | 4.7 | 10.6 | 13.5 | 8.6 | 3.4 | 5.1 | 3.1 | 9.8 | 3.9 | 4.4 | 8.1
CC[C@H](Nc1ncnc2[nH]cnc12)c1nc2cccc(F)c2c(=O)n1-c1ccccc1 [Idelalisib] (top concentration 10000 nM) | -1.06 | 0.04 | 1.24 | 0.04 | -2.16 | 5.34 | -1.16 | 16.1 | -2.16 | -0.26 | 8.04 | 5.64 | 11.3 | 4.04 | 1.24 | -1.26 | 23.8 | -0.76 | 3.54 | -2.16
